In patent US11484608B2, “Non-invasive assessment of hepatic mitochondrial metabolism by positional isotopomer NMR tracer analysis (PINTA)” (YALE UNIVERSITY, priority 2017, dated 2022):

Assays:
[1] = test system: hepatic mitochondrial fluxes (VPC, VCS); assay: PINTA / ex vivo NMR tracer study in rats infused with [3-^13C]lactate and [3-^3H]glucose (Example 1); conditions: 120 min [3-^13C]lactate infusion, mean ± S.E.M.
Source text: Male Sprague-Dawley rats (˜10 weeks of age) were ordered from Charles River (Wilmington, Mass.) at ˜300 g and fed regular chow unless otherwise specified. […] Prior to studies, rats underwent surgery under general isoflurane anesthesia to place polyethylene catheters in the jugular vein and common carotid artery (PE90 and PE50 tubing, respectively; Instech, Plymouth Meeting, Pa.). After 1 week, recovery was verified by confirming that the rats had regained their surgical weight. Unless otherwise specified, all experiments were performed following an overnight fast (16 hrs food withdrawal prior to sacrifice). In both the rodent and human studies, data are represented as the mean of two technical replicates for each subject (i.e. two technical replicates per biological replicate). Sample sizes were selected to give power to detect moderate to large differences between groups (n=5-6 per group), and all animals were included in the final analysis.
The investigator performing the animal studies was not blinded for practical reasons, but the investigators analyzing fluxes were blinded as to the group allocation.
The flux calculations required the following equations using [^13C] glucose positional enrichment in plasma or liver, determined by NMR and GC/MS mass spectrometry. VPC is the rate of pyruvate carboxylase flux as determined from the anaplerotic flow into oxaloacetate (OAA). VCS is defined as the flux of the citrate synthase reaction in the citric acid cycle. […] G2 denotes [m+2] glucose arising from the condensation of two singly-labeled trioses.
GC/MS was used to measure m+1 and m+2 [^13C]glucose enrichment. The total m+1 and m+2 [^13C]glucose enrichment was measured using a pentaacetate derivative: plasma or liver samples were deproteinized using 5 volumes of methanol, dried, and derivatized with 75 μL of 1:1 acetic anhydride:pyridine. After heating to 65° C. for 20 min, the reaction was terminated by adding 25 μL methanol, and m+1 and m+2 (as well as m+3 . . . m+6) were determined by GC/MS (CI mode, m/z 331 [m], 332 [m+1], 333 [m+2], . . . 337 [m+6]). The m+1 and m+2 [^13C] enrichments of the glucose C4C5C6 fragment were determined by generating the aldonitrile pentapropionate derivative: plasma or NMR liver extract samples were dried under N2 gas, and 50 μl hydroxylamine hydrochloride (20 mg/ml in pyridine) were added. The samples were heated at 90° C. for 60 min, then 100 μl propionic anhydride was added, after which the samples were heated at 60° C. for 30 min. Finally, the samples were evaporated under N2 gas, resuspended in ethyl acetate, and the m+1 and m+2 enrichment of the glucose C4C5C6 fragment was measured by GC/MS.
[^13C]alanine enrichment was measured by GC/MS. [^13C] NMR spectroscopy using the BRUKER TOPSPIN® system was utilized to measure relative positional 13C-enrichment of glucose, and combined with the total [^13C]glucose enrichment ([m+1]+2*[m+2]) measured by GC/MS to calculate the positional enrichment of [13C]glucose.
Total [^13C]glutamate enrichment was determined by LC-MS/MS. Approximately 100 mg of liver tissue was weighed out and homogenized in 500 μl ice-cold methanol using a TissueLyser, then centrifuged at 4000 rpm for 10 minutes. The supernatant was then purified by centrifugation (4000 rpm, 10 min) through the PALL NANOSEP® filter (100K) (Port Washington, N.Y.). Glutamate 13C enrichment ([m+1], [m+2]) was then assessed by LC-MS/MS using an AB SCIEX QTRAP 6500 (Framingham, Mass.), equipped with a SHIMADZU ultra-fast liquid chromatography (UFLC) system (Columbia, Md.) and electrospray ionization (ESI) source with negative-ion detection. The measured ion pairs were 146/128 (m0), 147/129 (m+1), and 148/130 (m+2).
Positional enrichment of glucose, glutamate, and alanine was measured by 13C NMR.

[2] = test system: primary mouse hepatocytes; assay: Oxygen consumption in isolated hepatocytes (Seahorse); format: cell-based
Protocol: To assess oxygen consumption, primary mouse hepatocytes were isolated as described above and plated on collagen-I coated XF24 V7 cell culture plates (1.2×10^4 cells per well) in 2 mL recovery media as previously described (Camporez, J. P. et al. Endocrinology 154, 3099-3109). Following incubation for 6 hr at 37° C. and 5% CO2, the cells were washed twice with 1 ml Low Glucose Culture Media and incubated overnight in 250 μl low glucose culture media at 37° C. and 5% CO2. The following morning, cells were washed with XF24 assay media (DMEM Base containing 1.0 mM pyruvate, 2 mM glutamine and 5.5 mM glucose, pH 7.4). 500 μL of XF24 Assay Media was added to each well and plates were equilibrated at 37° C. for 1 h. Four measurements of basal oxygen consumption rates (picomoles per minute) were recorded on a Seahorse Bioscience XF^e 24 Analyzer (Seahorse Biosciences) using an instrument protocol of 3-minute mix, 2-minute wait, and 3-minute measure. […] Ten measurements were taken following injection and the average of eight measurements were used for subsequent analyses. Oxygen consumption rates were normalized to total protein content and expressed as fold change compared to vehicle-treated cells. Experiments were repeated three times using 3-4 mice per genotype.

For glucagon, the “VPDH/VCS (%)” value ([1]; rat liver) was 2.7 ± 0.1%, the “VPK+ME/VPC+PDH (%)” value ([1]; rat liver) was <2% and the “VPC/VEGP (%)” value ([1]; rats) was 65 ± 3%. The “stimulation of mitochondrial oxidation” value ([2]; InsP3R-I KO hepatocytes from male mice) was “blunted”, the “stimulation of mitochondrial oxidation” value ([2]; WT hepatocytes from male mice) was ~60% and the oxygen consumption ([2]; isolated WT hepatocytes, 100 nM glucagon, not InsP3R-I KO) was “increase”.
